Measured values published in publication PMC9504178 (Viruses, 2022).

Tests used:
NL09 and NL11 strains = format: cell-based, influenza A virus
[1] = system: A/Netherlands/241/11 (NL11); format: cell-based, influenza A virus
NL09 and NL11 = format: cell-based, influenza A virus
NL09 or NL11 strain = format: cell-based, influenza A virus
NL11 (H3N2) = format: cell-based, influenza A virus
NL09 or NL11 = format: cell-based, influenza A virus
[2] = system: IAV laboratory strains (PR8 and WSN) and pandemic H1N1 (CA09); set-up: method as in earlier work; settings: A549 cells, AF 1μM, 15 hpi; cited from earlier work
[3] = system: human precision-cut lung slices (hPCLSs); assay: LDH-Glo cytotoxicity assay in hPCLSs; settings: [10×]max: AF 50 μM, DA 100 μM, RG 25 μM; relative to Triton-X 100 positive control, 20% cut-off
[4] = system: A/Netherlands/602/09 (NL09); format: cell-based, influenza A virus
c-Raf = settings: cited from earlier work; for higher selectivity for c-Raf than vemurafenib: no reference given
B-Raf = settings: no reference given; cited from earlier work
IAV = settings: single donor; cited from earlier work
[5] = system: A(H1N1)pdm09 A/Netherlands/602/09 (NL09); format: cell-based, influenza A virus
NL09 = format: cell-based, influenza A virus

SMILES	effect on viral titers, NL11 compared with NL09 (NL09 and NL11 strains)	reduction in viral titers (NL09 and NL11 strains)	relative infectivity, NL11 [1] [%]	highest viral titer reduction at MOI = 0.1 (NL09 and NL11)	time dependence of effect on virus replication (NL09 and NL11)	effect on viral entry (NP staining) (NL09 or NL11 strain)	significance of viral titer reduction in infected hPCLSs (NL09 or NL11)	time at which inhibition of virus replication in hPCLSs was observed (NL09 or NL11) [hpi]	relative infectivity, NL09 [4] [%]	reduction of the titers of both viruses (NL09 and NL11 strains)	other results
CN(C)C/C=C/C(=O)Nc1cc2c(Nc3ccc(F)c(Cl)c3)ncnc2cc1O[C@H]1CCOC1 [AF, afatinib]	significantly stronger in NL11-infected cells	100- to 3000 fold	65	1000 fold	greater effect on virus replication at the early time points (24 hpi)	inhibited	consistently significant after 48 hpi	≤ 12	–	–	% Luminescence (relative to untreated / normalized to GFP), NL11 infection (NL11 (H3N2)): 50%; relative cell viability over mock-infected treated controls (A549 cells): only marginally decreased the relative viability; effect on viral replication [2]: 2- to 5 fold; cytotoxicity (LDH release) in hPCLSs at [10×]max [3]: > 20%
CNC(=O)c1cc(Oc2ccc(NC(=O)Nc3ccc(Cl)c(C(F)(F)F)c3)c(F)c2)ccn1 [RG, regorafenib]	significantly stronger in NL11-infected cells	10- to 1000 fold	80	10,000 fold	greater effect on virus replication at the early time points (24 hpi)	inhibited	consistently significant after 48 hpi	≤ 12	75	–	antiviral effect in hPCLSs compared to A549 cells (NL09 or NL11): more potent antiviral effect; selectivity for c-Raf relative to B-Raf (c-Raf): ~ 10 fold; higher selectivity for c-Raf than vemurafenib (c-Raf): 10 fold; higher selectivity for B-Raf than vemurafenib (B-Raf): 10- to 100 fold; potency in primary bronchial cells vs A549 cells (IAV): less potent in primary bronchial cells than in A549 cells
Cc1cc(Nc2ncnc3ccc(NC4=NC(C)(C)CO4)cc23)ccc1Oc1ccn2ncnc2c1 [TU, tucatinib]	–	–	100	10 fold	–	no obvious effects on viral entry	–	≤ 12	86	10- to 30 fold	–
Cn1cc(-c2cc3c(N4CCN(c5ncc([C@@](C)(N)c6ccc(F)cc6)cn5)CC4)ncnn3c2)cn1 [AV, avapritinib]	–	–	81	10 fold	–	no obvious effects on viral entry	–	≤ 12	80	10- to 30 fold	–
CCOc1cc2ncc(C#N)c(Nc3ccc(OCc4ccccn4)c(Cl)c3)c2cc1NC(=O)/C=C/CN(C)C [NE, neratinib]	–	40- to 50 fold	92	100 fold	greater effect on virus replication at the early time points (24 hpi)	inhibited	–	≤ 12	70	10- to 30 fold	antiviral effect in hPCLSs compared to A549 cells (NL09 or NL11): more potent antiviral effect
CC(C)(C)c1nc(-c2cccc(NS(=O)(=O)c3c(F)cccc3F)c2F)c(-c2ccnc(N)n2)s1 [DA, dabrafenib]	significantly stronger in NL11-infected cells	10- to 100 fold	126	100 fold	–	inhibited	consistently significant after 48 hpi	≤ 12	117	–	higher selectivity for c-Raf than vemurafenib (c-Raf): 10 fold; higher selectivity for B-Raf than vemurafenib (B-Raf): 10- to 100 fold
O=C(Nc1cnn2ccc(N3CCC[C@@H]3c3cc(F)ccc3F)nc12)N1CC[C@H](O)C1 [LA, larotrectinib]	–	–	91	100 fold	greater effect on virus replication at the early time points (24 hpi)	no obvious effects on viral entry	–	≥ 72	60	10- to 30 fold	NL09 viral titer reduction [5]: ~ 9 fold; relative intracellular to extracellular (I/E) viral RNA Ct ratio (egress) (NL09): did not observe significant differences in any single step of viral replication
